Columns and labels:
[1] = target: T1, sEH (Homo sapiens, UniProt P34913); assay: inhibition of sEH; type: biochemical
T1 sequence (P34913 1-555): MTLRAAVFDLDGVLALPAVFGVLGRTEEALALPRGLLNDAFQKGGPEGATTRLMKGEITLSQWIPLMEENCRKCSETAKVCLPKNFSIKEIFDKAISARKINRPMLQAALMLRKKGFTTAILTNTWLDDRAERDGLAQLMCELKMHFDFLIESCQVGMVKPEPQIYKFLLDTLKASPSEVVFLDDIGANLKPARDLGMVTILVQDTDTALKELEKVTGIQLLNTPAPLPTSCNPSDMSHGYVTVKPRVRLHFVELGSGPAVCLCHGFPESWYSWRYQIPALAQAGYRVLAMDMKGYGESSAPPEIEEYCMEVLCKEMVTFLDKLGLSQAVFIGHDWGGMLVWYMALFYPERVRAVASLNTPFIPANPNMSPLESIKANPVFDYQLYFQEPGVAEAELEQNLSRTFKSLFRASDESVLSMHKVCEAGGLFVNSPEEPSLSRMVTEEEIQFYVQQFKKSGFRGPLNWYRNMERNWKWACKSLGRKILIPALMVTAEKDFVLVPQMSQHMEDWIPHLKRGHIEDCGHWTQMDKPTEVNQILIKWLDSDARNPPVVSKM
Source text: (§1) Any of a number of standard assays for determining epoxide hydrolase activity can be used to determine inhibition of sEHI. […] Suitable in vitro assays are described in Zeldin et al. J. Biol. Chem. 268:6402-6407 (1993). Suitable in vivo assays are described in Zeldin et al., Arch Biochem Biophys 330:87-96 (1996).
(§2) The enzyme also can be detected based on the binding of specific ligands to the catalytic site which either immobilize the enzyme or label it with a probe such as dansyl, fluoracein, luciferase, green fluorescent protein or other reagent. The enzyme can be assayed by its hydration of EETs, its hydrolysis of an epoxide to give a colored product as described by Dietze et al., 1994, supra, or its hydrolysis of a radioactive surrogate substrate (Borhan et al., 1995, supra). The enzyme also can be detected based on the generation of fluorescent products following the hydrolysis of the epoxide. Numerous methods of epoxide hydrolase detection have been described (see, e.g., Wixtrom, supra).
(§3) The assays are normally carried out with a recombinant enzyme following affinity purification. They can be carried out in crude tissue homogenates, cell culture or even in vivo, as known in the art and described in the references cited above.

[2] = metabolism and stability; settings: in vivo
[3] = system: sEH; assay: inhibition of sEH; type: biochemical; settings: relative to parent compound
Source text: as §1, §2, §3

[4] = system: streptozocin induced neuropathic pain; assay: von Frey test (mechanical allodynia) in streptozocin neuropathic rats; type: in vivo, rat; settings: neuropathic pain model
Procedure: Male Sprague-Dawley rats weighing 250-300 grains were used. Animals were individually housed at UC Davis Animal Resource Facility under standard conditions with free access to food and water, and maintained for at least 1 week before the experiments. Pain was quantified using three tests, the hind paw withdrawal latency test, the mechanical hyperalgesia test and the mechanical allodynia test. All the experiments were performed during the daytime.
Rats were first trained to the experimental chamber in two separate sessions. On the day of the induction of neuropathy, the animals' basal response to all three tests were measured and then streptozocin (50 mg/kg) was administered intravenously. Animals were then followed over time for the development of neuropathic pain. An inhibitor of sEH was administered subcutaneously one week after the onset of pain symptoms. […] Compounds were formulated by dissolving them in ethanol and mixing with trans free oleic oil. At least six animals per group were used. The Von Frey test was conducted by stimulating the plantar surface of the rats' hind paw with a calibrated filament connected to a force transducer. As this filament is applied the amount of force exerted on the paw increases and the animal withdraws its paw when the force reaches its threshold. […] In the Randal-Selitto test a similar principle is used. The animals' hind paw is placed between a flat surface and a pointed tip of a force transducer. The pointed tip exerts force on the dorsal face of the paw. […] The two tests are complementary, but depend on the activity of different groups of nociceptors.
Treatments and behavioral nociceptive tests. […] Following baseline measurements, rats were first treated with 200 μl of vehicle or compound-formulated cream by topical application to one hindpaw, LPS ([…] in 50 μl 0.9% NaCl) was injected into the plantar surface of the treated paw. For subcutaneous administration, compounds were injected immediately after intraplantar LPS. […] A probe fitted with a filament that is connected to a force transducer was applied to the plantar hind paw surface through a wire-mesh platform until eliciting a withdrawal reflex. The duration of heat application or the force (gr) necessary to elicit a withdrawal was designated as TWL and MWT. The steroidogenesis inhibitors were applied 2 hours before sEHI and LPS administration. Diabetes was induced by intravenous injection of 50 mg/kg streptozocin (STZ) in saline following baseline measurements. Diabetic animals were tested at least one week after STZ administration. Three measurements were taken from each animal at each time point and average responses were converted to percent analgesia index based on each animals' baseline response.

[5] = target: T2, rat sEH (Rattus norvegicus, UniProt P80299); assay: rat sEH inhibition; type: biochemical
T2 sequence (P80299 1-554): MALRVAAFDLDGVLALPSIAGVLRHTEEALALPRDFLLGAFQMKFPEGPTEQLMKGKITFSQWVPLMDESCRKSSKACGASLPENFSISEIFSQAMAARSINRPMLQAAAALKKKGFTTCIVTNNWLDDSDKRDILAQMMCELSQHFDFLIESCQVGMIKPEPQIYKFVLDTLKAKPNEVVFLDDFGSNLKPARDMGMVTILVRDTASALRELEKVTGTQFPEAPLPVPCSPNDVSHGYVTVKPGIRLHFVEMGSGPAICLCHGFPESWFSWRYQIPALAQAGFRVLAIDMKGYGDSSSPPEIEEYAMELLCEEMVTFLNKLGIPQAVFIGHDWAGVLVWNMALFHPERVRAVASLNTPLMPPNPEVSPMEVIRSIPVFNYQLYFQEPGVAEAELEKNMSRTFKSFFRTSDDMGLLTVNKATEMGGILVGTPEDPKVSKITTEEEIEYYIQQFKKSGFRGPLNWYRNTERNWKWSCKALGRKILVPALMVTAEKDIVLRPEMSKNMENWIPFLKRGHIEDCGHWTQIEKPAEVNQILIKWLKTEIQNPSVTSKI

[6] = system: streptozocin induced neuropathic pain; assay: mechanical hyperalgesia test (Randal-Selitto) in streptozocin neuropathic rats; type: in vivo, rat
Procedure: Male Sprague-Dawley rats weighing 250-300 grains were used. Animals were individually housed at UC Davis Animal Resource Facility under standard conditions with free access to food and water, and maintained for at least 1 week before the experiments. Pain was quantified using three tests, the hind paw withdrawal latency test, the mechanical hyperalgesia test and the mechanical allodynia test. All the experiments were performed during the daytime. Rats were first trained to the experimental chamber in two separate sessions. On the day of the induction of neuropathy, the animals' basal response to all three tests were measured and then streptozocin (50 mg/kg) was administered intravenously. Animals were then followed over time for the development of neuropathic pain. An inhibitor of sEH was administered subcutaneously one week after the onset of pain symptoms. […] Pain response was measured at 60, 120, 240 and 480 minutes after the administration of the sEHI. Compounds were formulated by dissolving them in ethanol and mixing with trans free oleic oil. At least six animals per group were used. The Von Frey test was conducted by stimulating the plantar surface of the rats' hind paw with a calibrated filament connected to a force transducer. As this filament is applied the amount of force exerted on the paw increases and the animal withdraws its paw when the force reaches its threshold. […] In the Randal-Selitto test a similar principle is used. The animals' hind paw is placed between a flat surface and a pointed tip of a force transducer. The pointed tip exerts force on the dorsal face of the paw. […] The two tests are complementary, but depend on the activity of different groups of nociceptors.

Row | IC50 [5] [nM] | Compound | activity as inhibitor of sEH [1] | metabolic stability [2] | fold less active in inhibiting sEH than parent compound [3] [fold] | pain scores of diabetic rats [4] | pain, mechanical hyperalgesia test (FIG. 3) ([6]; 25 mg/kg) | mechanical allodynia induced by diabetic neuropathy (FIG. 3 legend) ([6]; compound 1010 at equivalent dose)
1 | – | CCCCCCCCCCCCNC(=O)NC12CC3CC(CC(C3)C1)C2 [ADU, N-Adamantyl-N-dodecyl urea] | particularly high activity on sEH | metabolically stable | – | – | – | –
2 | 1160 | CCOCCOCCOCCCCCNC(=O)NC12CC3CC(CC(O)(C3)C1)C2 [compound 1010, reference compound] | – | – | 250 | not | showed no effectiveness | shows no effectiveness in reducing nociception

From patent US8399425B2, “Alleviating neuropathic pain with EETs and sEH inhibitors” (The Regents of the University of California, priority 2007, dated 2013)
